In brackets after ≈: the same amount, converted by molar mass. Several values for one entry are separate records, joined by “and”; a condition that tells them apart may be missing. Equal values may be shown once. Read-outs that look alike come from different tables or passages of the source.
What was measured:
[1] = target: T1, BCL6-SMRT (NCOR2) corepressor protein-protein interaction (Homo sapiens, UniProt P41182); assay: NanoBRET cellular assay (HEK293T); type: cell-based; conditions: for IC90: read-out: BCL6 NanoBRET IC90 individual replicates
T1 construct: DNA encoding full length BCL6 and SMRT; expressed in transfected cells; host or cells: HEK293T
Procedure: Test compounds in DMSO or DMSO alone
concentration in 0.7% v/v DMSO final.
(also called NCOR2) corepressor protein-protein interaction. DNA encoding full length BCL6 and SMRT
fusion proteins BCL6-nanoLuc and SMRT-HaloTag, respectively. HEK293T cells were plated […] in T75
At the time of assay, compounds
dispensing (Labcyte Inc.). Frozen transfected HEK293T cells were thawed, centrifuged and freezing
DMSO final concentration.
After a short centrifugation the
(1st emission filter) / 450-80 nm (2nd emission filter). The % inhibition at each test concentration was
sigmoidal four-parameter logistic fit equation. […]

[2] = logD7.4 assay (Chrom log D method); type: physicochemical
[3] = target: human BCL6 BTB domain (Homo sapiens, UniProt P41182); assay: BCL6 TR-FRET assay; type: binding; conditions: for BCL6 TR-FRET pIC50 mean / IC90: Table S1; for IC90: read-out: BCL6 TR-FRET IC90 Geometric Mean
Procedure: 1. Supplementary experimental: protein production, purification and crystallography 1.1 BCL6 constructs used for assays and crystallography […]
cleavage site. For the TR-FRET assay, the Trx-6His-HRV3C-BCL6 protein construct was used without cleaving the tag, as a 6His was needed to bind to the anti-6His-Terbium antibody. […]
For both plasmid constructs described above, transformed BL21-AI E. coli cells were grown in LB media […]
Expression was carried out at 18 °C for 18 hours. Cells were harvested by centrifugation (5500 g for 30 minutes at 4 °C) and stored at -80 °C.
Cells were re-suspended in a buffer composed of 20 mM Tris pH 8, 250 mM NaCl, 1 mM MgCl2, 0.5 mM […]
lysed by sonication followed by centrifugation at 21,000 g for 45 minutes at 4 °C. […]
ResourceQ and gel filtration using a HiLoad 26/60 Superdex75 column in a buffer containing 20 mM HEPES […]
The final protein was assessed for purity and molar mass by SDS-PAGE and high-resolution mass spectrometry, respectively.
For the uncleaved Trx-6His-HRV3C-BCL6 protein construct to be used in TR-FRET, the protein was directly eluted from the HisTrap FF column without HRV-3C treatment, and submitted to Superdex75 gel filtration […]
Test compounds in DMSO or DMSO alone […]
concentration in 0.7% v/v DMSO final. […]

[4] = Microsomal clearance, mouse liver microsomes
[5] = system: Caco-2 human colon carcinoma cell line; conditions: pH 7.4
[6] = NMR aqueous solubility assay; conditions: HEPES buffer, aqueous with cosolvent or surfactant or cyclodextrin
[7] = geometric mean of at least three replicates, read-out: NanoBRET IC50
[8] = single replicates, Table S2, read-out: BCL6 NanoBRET IC50 individual replicates
[9] = geometric mean of at least three replicates, read-out: BCL6 TR-FRET IC50

Row | Papp A→B [5] | efflux ratio [5] | IC90 ([1]; HEK-293T, Table S2) | decrease in cellular potency compared to CCT372064 ([1]; NanoBRET) | IC50 ([1]; supplement, read-out: BCL6 NanoBRET IC50 Geometric Mean) | solubility kinetic at 20 h [6] | chromatographic logD ([2]; pH 7.4, read-out: Measured logD7.4) | IC50 ([3]; supplement, read-out: BCL6 TR-FRET IC50 Geometric Mean) | microsomal CLint at 0.5 h, 1 µM ([4]; female, CD1, mouse, liver microsomes, pH 7.4) | Compound | BCL6 NanoBRET pIC50 mean ([1]; Table S2) | IC90 ([1]; Table S2) | IC50 [1, 7] | IC50 [1, 8] | Measured logD7.4 [2] | BCL6 TR-FRET pIC50 mean [3] | IC90 [3] | IC50 [3, 9] | CLint H/M/R ([4]; one value given, mouse microsomal clearance per text)
1 | – | – | – | – | – | – | – | – | – | (2S)-10-((2-(3-acetyl-3,8-diazabicyclo[3.2.1]octan-8-yl)-5-chloropyrimidin-4-yl)amino)-2-cyclopropyl-3,3-difluoro-7-methyl-1,2,3,4-tetrahydro-[1,4]oxazepino[2,3-c]quinolin-6(7H)-one [compound 7] | 7.3871 | 284 nM | 41 nM | 28.2 nM and 47.9 nM and 51.1 nM | 2.5 | 8.728 | 13.7 nM | 1.9 nM | 50 μLmin^-1mg^-1
2 | 9.1 ×10⁻⁶ cm/s | 2.9 | 796 nM | 5 fold | 68.9 nM | 6 µM (≈ 2.8 µg/mL) | 3.2 | 13.4 nM | 24 µL/min/mg | Cn1c(=O)c2c(c3cc(Nc4ccnc(Cl)c4Cl)ccc31)N[C@@H](C1CC1)C(F)(F)CO2 [compound 15, (S)-2-Cyclopropyl-10-((2,3-dichloropyridin-4-yl)amino)-3,3-difluoro-7-methyl-1,2,3,4-tetrahydro-[1,4]oxazepino[2,3-c]quinolin-6(7H)-one] | 7.1618 | – | 68 nM | 106 nM and 43.5 nM and 71 nM | – | 7.873 | 109 nM | 13 nM | –
